Compound in test [1]: O=[As]([O-])(O)O.[K+] [potassium arsenate]
The test can be described thus: thermal stability z-score vs DMSO; higher = more thermally stabilized by treatment. Particulars: HeLa; arsenate concentration 1 mM. How it is done:
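Cellular thermal proteome profiling in HeLa cells treated with 1 mM arsenate for 1 h (DMSO pretreatment), heated to ten temperatures (37-66.3 °C). Soluble protein was quantified by TMT mass spectrometry relative to DMSO controls; the thermal stability score was transformed to a z-score; mean of n = 3 experiments.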

Compound in test [2]: NC(=O)CCCCC1CCSS1 [lipoamide]
Described as above. Particulars: HeLa, lipoamide concentration 100 µM. On the procedure:
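Cellular thermal proteome profiling in HeLa cells. Cells were treated with 100 µM lipoamide for 1 h, with or without 1 mM arsenate for a further 1 h, then heated to ten temperatures (37-66.3 °C), and soluble protein was quantified by TMT mass spectrometry relative to 0.1% DMSO controls. The thermal stability score (sum of log2 fold changes minus the abundance score) was transformed to a z-score; mean of n = 3 experiments.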

The mark [3] stands for this setting: arsenate co-treatment: 1 mM arsenate 1 h.
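Further: each temperature applied for 3 min, abundance score taken as mean log2 fold change at the two lowest temperatures, z-score obtained by mean subtraction and division by SD.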

Sequence of UniProt Q05086 (Q05086 whole entry): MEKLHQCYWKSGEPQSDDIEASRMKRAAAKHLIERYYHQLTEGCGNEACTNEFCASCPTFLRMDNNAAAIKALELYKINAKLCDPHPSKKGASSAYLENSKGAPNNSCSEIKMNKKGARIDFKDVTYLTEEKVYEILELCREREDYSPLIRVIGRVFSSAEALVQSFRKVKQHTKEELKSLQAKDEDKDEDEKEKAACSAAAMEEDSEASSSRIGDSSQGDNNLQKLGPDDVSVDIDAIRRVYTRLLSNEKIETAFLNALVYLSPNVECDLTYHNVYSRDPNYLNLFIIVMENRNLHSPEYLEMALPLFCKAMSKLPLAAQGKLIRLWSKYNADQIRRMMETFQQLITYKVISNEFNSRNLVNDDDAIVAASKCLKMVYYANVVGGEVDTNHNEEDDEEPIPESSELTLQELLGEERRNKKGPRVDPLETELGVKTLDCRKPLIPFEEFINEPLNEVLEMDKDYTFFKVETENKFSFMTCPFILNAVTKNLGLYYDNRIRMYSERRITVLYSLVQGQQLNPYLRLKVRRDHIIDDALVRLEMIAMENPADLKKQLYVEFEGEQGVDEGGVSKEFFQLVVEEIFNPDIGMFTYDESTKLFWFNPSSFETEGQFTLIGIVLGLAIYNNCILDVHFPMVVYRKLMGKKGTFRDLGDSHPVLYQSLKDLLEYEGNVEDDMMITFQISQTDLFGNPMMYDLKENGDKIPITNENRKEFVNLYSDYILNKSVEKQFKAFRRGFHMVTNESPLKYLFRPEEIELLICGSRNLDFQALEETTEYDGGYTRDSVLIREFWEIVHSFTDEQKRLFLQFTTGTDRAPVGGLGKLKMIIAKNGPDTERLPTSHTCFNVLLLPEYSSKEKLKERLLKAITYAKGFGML
Sequence of UniProt Q9UMZ2 (Q9UMZ2 whole entry): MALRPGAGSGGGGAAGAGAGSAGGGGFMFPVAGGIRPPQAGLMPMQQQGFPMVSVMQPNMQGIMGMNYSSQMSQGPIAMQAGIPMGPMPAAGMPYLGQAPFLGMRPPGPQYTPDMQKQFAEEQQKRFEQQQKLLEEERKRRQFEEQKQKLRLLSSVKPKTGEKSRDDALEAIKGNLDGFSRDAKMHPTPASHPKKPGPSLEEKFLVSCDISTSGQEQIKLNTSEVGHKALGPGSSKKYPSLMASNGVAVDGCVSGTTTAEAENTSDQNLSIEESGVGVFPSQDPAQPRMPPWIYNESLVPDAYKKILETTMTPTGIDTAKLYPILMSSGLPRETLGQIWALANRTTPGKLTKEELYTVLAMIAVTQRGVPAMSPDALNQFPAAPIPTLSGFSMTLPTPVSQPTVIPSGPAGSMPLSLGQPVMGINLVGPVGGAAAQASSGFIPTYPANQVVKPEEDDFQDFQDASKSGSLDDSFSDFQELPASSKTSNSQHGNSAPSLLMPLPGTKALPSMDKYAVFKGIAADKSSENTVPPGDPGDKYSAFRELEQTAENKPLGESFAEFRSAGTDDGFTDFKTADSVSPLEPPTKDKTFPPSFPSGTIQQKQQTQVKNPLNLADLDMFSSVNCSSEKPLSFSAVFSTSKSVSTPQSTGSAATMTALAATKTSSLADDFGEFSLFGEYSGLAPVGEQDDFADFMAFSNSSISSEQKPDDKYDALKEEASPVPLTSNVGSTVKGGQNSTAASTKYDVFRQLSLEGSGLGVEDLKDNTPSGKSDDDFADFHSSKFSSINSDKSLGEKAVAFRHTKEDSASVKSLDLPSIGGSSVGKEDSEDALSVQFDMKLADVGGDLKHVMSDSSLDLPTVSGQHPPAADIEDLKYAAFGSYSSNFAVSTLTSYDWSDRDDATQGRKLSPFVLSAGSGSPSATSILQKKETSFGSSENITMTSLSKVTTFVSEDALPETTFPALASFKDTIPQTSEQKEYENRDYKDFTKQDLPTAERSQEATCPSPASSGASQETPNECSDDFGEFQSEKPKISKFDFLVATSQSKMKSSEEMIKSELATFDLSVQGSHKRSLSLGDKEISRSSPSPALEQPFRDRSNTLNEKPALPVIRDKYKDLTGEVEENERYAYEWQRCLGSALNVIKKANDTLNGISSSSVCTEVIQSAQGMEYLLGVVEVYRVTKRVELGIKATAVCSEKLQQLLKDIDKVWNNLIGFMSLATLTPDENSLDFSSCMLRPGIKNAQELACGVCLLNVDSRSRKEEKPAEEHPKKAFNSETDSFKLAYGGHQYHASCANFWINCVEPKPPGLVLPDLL
Sequence of UniProt P54278 (P54278 whole entry): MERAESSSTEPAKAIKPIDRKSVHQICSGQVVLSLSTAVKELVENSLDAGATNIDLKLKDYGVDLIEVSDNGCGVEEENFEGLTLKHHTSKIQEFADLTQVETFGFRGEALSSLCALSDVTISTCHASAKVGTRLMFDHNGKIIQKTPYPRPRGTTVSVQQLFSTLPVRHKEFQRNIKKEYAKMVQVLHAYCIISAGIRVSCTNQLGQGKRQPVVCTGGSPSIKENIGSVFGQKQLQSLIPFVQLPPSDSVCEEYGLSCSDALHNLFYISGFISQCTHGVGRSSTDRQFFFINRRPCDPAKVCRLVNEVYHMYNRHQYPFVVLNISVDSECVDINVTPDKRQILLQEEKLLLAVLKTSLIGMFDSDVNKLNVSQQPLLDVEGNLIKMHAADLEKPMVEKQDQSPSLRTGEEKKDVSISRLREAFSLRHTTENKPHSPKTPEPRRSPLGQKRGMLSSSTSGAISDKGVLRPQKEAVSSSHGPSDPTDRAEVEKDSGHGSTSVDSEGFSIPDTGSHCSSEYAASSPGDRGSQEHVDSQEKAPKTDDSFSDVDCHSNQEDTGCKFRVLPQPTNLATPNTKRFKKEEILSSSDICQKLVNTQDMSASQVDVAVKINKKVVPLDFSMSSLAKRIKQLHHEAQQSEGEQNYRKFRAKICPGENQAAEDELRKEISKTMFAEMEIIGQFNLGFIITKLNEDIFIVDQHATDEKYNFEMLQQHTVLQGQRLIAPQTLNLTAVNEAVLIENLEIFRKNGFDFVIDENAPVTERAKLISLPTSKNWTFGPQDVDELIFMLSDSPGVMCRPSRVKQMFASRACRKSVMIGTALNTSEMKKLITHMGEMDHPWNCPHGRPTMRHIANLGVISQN
Sequence of UniProt Q9H3K2 (Q9H3K2 whole entry): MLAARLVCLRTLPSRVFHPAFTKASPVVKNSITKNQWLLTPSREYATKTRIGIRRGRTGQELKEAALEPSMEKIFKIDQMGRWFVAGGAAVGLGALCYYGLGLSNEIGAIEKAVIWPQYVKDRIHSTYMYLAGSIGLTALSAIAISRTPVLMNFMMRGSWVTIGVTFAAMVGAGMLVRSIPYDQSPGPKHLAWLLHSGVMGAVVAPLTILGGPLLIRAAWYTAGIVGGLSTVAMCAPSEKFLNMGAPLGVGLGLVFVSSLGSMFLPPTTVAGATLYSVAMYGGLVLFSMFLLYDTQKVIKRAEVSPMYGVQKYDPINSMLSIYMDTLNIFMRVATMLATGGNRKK
Sequence of UniProt Q5MIZ7 (Q5MIZ7 whole entry): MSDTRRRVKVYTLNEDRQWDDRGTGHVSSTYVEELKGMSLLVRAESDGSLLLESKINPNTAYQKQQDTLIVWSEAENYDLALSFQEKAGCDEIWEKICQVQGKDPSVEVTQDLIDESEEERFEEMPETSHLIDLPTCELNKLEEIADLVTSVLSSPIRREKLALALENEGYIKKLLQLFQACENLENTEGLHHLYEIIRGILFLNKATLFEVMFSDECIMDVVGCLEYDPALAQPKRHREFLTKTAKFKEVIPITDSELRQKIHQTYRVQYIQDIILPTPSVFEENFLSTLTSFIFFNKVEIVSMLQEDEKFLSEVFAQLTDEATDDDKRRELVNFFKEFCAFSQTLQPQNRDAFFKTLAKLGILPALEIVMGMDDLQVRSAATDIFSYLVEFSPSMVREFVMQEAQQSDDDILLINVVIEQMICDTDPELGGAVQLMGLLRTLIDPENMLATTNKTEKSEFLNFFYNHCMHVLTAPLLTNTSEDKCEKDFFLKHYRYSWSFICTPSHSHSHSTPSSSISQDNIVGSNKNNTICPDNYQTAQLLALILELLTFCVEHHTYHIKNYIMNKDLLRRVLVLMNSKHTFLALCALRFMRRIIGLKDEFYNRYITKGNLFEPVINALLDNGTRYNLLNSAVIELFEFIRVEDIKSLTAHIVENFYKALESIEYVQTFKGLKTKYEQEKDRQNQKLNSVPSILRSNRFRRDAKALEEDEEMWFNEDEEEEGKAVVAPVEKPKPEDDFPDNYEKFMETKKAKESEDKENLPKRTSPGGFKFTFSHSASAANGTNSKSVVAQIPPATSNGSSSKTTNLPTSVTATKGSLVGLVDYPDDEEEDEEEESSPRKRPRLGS
Sequence of UniProt Q9H467 (Q9H467 whole entry): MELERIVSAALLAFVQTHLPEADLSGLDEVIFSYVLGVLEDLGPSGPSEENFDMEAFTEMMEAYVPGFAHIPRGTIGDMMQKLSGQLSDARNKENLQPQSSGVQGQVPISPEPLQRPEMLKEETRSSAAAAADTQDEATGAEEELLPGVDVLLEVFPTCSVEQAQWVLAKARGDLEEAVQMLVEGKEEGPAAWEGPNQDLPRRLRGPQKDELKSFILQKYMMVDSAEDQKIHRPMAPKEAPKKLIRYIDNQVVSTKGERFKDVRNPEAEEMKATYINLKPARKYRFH
Sequence of UniProt Q99541 (Q99541 whole entry): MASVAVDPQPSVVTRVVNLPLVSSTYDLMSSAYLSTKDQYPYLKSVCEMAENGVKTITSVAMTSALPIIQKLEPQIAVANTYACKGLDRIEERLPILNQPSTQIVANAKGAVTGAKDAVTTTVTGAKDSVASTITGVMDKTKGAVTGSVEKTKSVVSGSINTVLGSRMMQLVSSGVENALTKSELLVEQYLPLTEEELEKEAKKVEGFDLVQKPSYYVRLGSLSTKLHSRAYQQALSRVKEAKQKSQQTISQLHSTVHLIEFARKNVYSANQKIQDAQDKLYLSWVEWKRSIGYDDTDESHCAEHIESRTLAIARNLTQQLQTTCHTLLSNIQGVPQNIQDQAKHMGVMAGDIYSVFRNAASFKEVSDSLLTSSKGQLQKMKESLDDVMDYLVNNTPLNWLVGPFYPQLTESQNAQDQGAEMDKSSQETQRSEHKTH

PMS2 (UniProt P54278): the thermal stability z-score is -0.0209 in test [1], -0.198 in test [2] (setting [3]) and -0.101 in test [2] (arsenate co-treatment: none).
The corresponding values for MTG1 (UniProt Q9BT17) are 0.195, 0.0673 and 0.0916.
Take HNRNPK (UniProt P61978): the thermal stability z-score in test [1] is -1.69; in test [2] (setting [3]) it was -0.316; in test [2] (arsenate co-treatment: none) it was 0.559.
The corresponding values for SCARB2 (UniProt Q14108) are 0.368, 0.111 and 0.346.
For MASTL (UniProt Q96GX5), in that order: -0.0433, -0.0186 and -0.102.
The corresponding values for DNMBP (UniProt Q6XZF7) are 0.897, -0.142 and -0.138.
On to GHITM (UniProt Q9H3K2), for which the thermal stability z-score in test [1] is -0.0999; in test [2] (setting [3]) it was -0.161; in test [2] (arsenate co-treatment: none), -0.193.
For FUBP3 (UniProt Q96I24), in that order: 0.385, 0.25 and 0.329.
The corresponding values for CEP250 (UniProt Q9BV73) are 0.0828, 0.0869 and 0.182.
The corresponding values for PLIN2 (UniProt Q99541) are 2.1, 0.587 and 0.338.
Regarding NOC4L (UniProt Q9BVI4), the thermal stability z-score was determined as 0.214 in test [1], 0.134 in test [2] (setting [3]) and 0.00403 in test [2] (arsenate co-treatment: none).
With HAUS6 (UniProt Q7Z4H7), the thermal stability z-score in test [1] amounted to 0.528; in test [2] (setting [3]), 0.0315; in test [2] (arsenate co-treatment: none), 0.263.
The corresponding values for HPRT1 (UniProt P00492) are 0.0837, 0.468 and 0.716.
For GNAI1 (UniProt P63096), in that order: 0.0642, 0.913 and 1.18.
The corresponding values for THOC2 (UniProt Q8NI27) are 0.273, -0.212 and -0.102.
For the target UBE3A (UniProt Q05086), the thermal stability z-score in test [1] is 0.3; in test [2] (setting [3]) it was 0.245; in test [2] (arsenate co-treatment: none), -0.149.
The corresponding values for PPP4R3B (UniProt Q5MIZ7) are -0.227, -0.195 and -0.1.
The corresponding values for MRPL17 (UniProt Q9NRX2) are -0.206, 0.0551 and 0.00699.
For the target SYNRG (UniProt Q9UMZ2), the thermal stability z-score is 0.478 in test [1], -0.398 in test [2] (setting [3]) and -0.18 in test [2] (arsenate co-treatment: none).
For NCOR1 (UniProt O75376), in that order: -0.0899, -0.0471 and -0.0243.
For WAC (UniProt Q9BTA9), in that order: 0.126, 0.192 and 0.112.
Consider NUBPL (UniProt Q8TB37), for which the thermal stability z-score in test [1] was -0.262; in test [2] (setting [3]), -0.216; in test [2] (arsenate co-treatment: none), -0.498.
With ZBTB8OS (UniProt Q8IWT0), the thermal stability z-score in test [1] was -1.01; in test [2] (setting [3]) it was -0.245; in test [2] (arsenate co-treatment: none), 0.591.
For CUEDC2 (UniProt Q9H467), in that order: 0.0094, -0.0601 and -0.131.
For PRELID1 (UniProt Q9Y255), in that order: -0.054, 0.0933 and -0.2.
For NO66 (UniProt Q9H6W3), in that order: 0.842, 0.635 and 0.483.
For the target HERPUD1 (UniProt Q15011), the thermal stability z-score in test [1] was -0.94; in test [2] (setting [3]), 0.186; in test [2] (arsenate co-treatment: none) it was -0.201.
For GART (UniProt P22102), the results for the thermal stability z-score in test [1], in test [2] (setting [3]) and in test [2] (arsenate co-treatment: none) were -0.419, 0.221 and -0.0107, respectively.
For LMAN1 (UniProt P49257), in that order: 0.757, -3.38 and -2.78.
The corresponding values for SDAD1 (UniProt Q9NVU7) are -0.469, 0.0663 and -0.0856.
As to TAPT1 (UniProt Q6NXT6), the thermal stability z-score in test [1] is -0.606; in test [2] (setting [3]) it was 0.869; in test [2] (arsenate co-treatment: none) it was 0.562.
Consider CEP350 (UniProt Q5VT06), for which the thermal stability z-score in test [1] was -0.0541; in test [2] (setting [3]), -0.154; in test [2] (arsenate co-treatment: none) it was -0.182.
As for BEGAIN (UniProt Q9BUH8), the values for the thermal stability z-score in test [1], in test [2] (setting [3]) and in test [2] (arsenate co-treatment: none) were 0.144, -0.0429 and -0.117, respectively.
The corresponding values for SNX2 (UniProt O60749) are 0.364, -0.0255 and 0.0641.
The corresponding values for WDR11 (UniProt Q9BZH6) are -0.267, -0.207 and -0.147.
In the case of DSC2 (UniProt Q02487), the thermal stability z-score in test [1] stood at 1.77; in test [2] (setting [3]) it was 2.38; in test [2] (arsenate co-treatment: none) it was 5.06.
For RNF31 (UniProt Q96EP0), in that order: -0.255, -0.101 and 0.0489.
The corresponding values for YWHAG (UniProt P61981) are -0.403, 0.0458 and -0.0254.
The corresponding values for HECTD3 (UniProt Q5T447) are 0.272, -0.331 and -0.0311.
For SMCHD1 (UniProt A6NHR9), the thermal stability z-score in test [1] was -0.528; in test [2] (setting [3]), -0.13; in test [2] (arsenate co-treatment: none) it was -0.0876.
For SMARCC1 (UniProt Q92922), in that order: -0.204, 0.791 and 1.14.
The corresponding values for ABL2 (UniProt P42684) are -0.0185, -0.0711 and -0.109.

Values taken from the supplement of paper PMC12463676, “Small-molecule dissolution of stress granules by redox modulation benefits ALS models” (Nature Chemical Biology, 2025).
